Columns and labels:
Type in all cases: cell-based
[1] = system: Staphylococcus aureus 208E; assay: In vitro antibacterial activity against resistant strains (MIC); details: resistant strain Staphylococcus aureus 208E; 2-fold agar dilution; methicillin resistant strains 48 hours at 30° C.; read-out: minimum inhibitory concentration (MIC)
Procedure: (§1) 10^7 cfu/ml of bacteria were inoculated and cultured for 18 hours at 37° C. and then the antibacterial activities were measured. For the methicillin resistant strains the activities were measured after 48 hours of cultivation at 30° C. Hoechst Standard strains were used for the testings.

[2] = system: Staphylococcus aureus 303; assay: as above; details: resistant strain Staphylococcus aureus 303; 2-fold agar dilution; methicillin resistant strains 48 hours at 30° C.; read-out: minimum inhibitory concentration (MIC)
Procedure: as §1

[3] = system: Staphylococcus aureus 703E; assay: as above; details: resistant strain Staphylococcus aureus 703E; 2-fold agar dilution; methicillin resistant strains 48 hours at 30° C.; read-out: minimum inhibitory concentration (MIC)
Procedure: as §1

[4] = system: Staphylococcus epidermidis 291; assay: as above; details: resistant strain Staphylococcus epidermidis 291; 2-fold agar dilution; methicillin resistant strains 48 hours at 30° C.; read-out: minimum inhibitory concentration (MIC)
Procedure: as §1

[5] = system: Staphylococcus aureus 179; assay: as above; details: resistant strain Staphylococcus aureus 179; 2-fold agar dilution; methicillin resistant strains 48 hours at 30° C.; read-out: minimum inhibitory concentration (MIC)
Procedure: as §1

[6] = system: Staphylococcus aureus 256E; assay: as above; details: resistant strain Staphylococcus aureus 256E; 2-fold agar dilution; methicillin resistant strains 48 hours at 30° C.; read-out: minimum inhibitory concentration (MIC)
Procedure: as §1

[7] = system: Staphylococcus aureus 695E; assay: as above; details: resistant strain Staphylococcus aureus 695E; 2-fold agar dilution; methicillin resistant strains 48 hours at 30° C.; read-out: minimum inhibitory concentration (MIC)
Procedure: as §1

[8] = system: Staphylococcus aureus 121E; assay: as above; details: resistant strain Staphylococcus aureus 121E; 2-fold agar dilution; methicillin resistant strains 48 hours at 30° C.; read-out: minimum inhibitory concentration (MIC)
Procedure: as §1

[9] = system: Staphylococcus aureus 693E; assay: as above; details: resistant strain Staphylococcus aureus 693E; 2-fold agar dilution; methicillin resistant strains 48 hours at 30° C.; read-out: minimum inhibitory concentration (MIC)
Procedure: as §1

[10] = system: Staphylococcus aureus 697E; assay: as above; details: resistant strain Staphylococcus aureus 697E; 2-fold agar dilution; methicillin resistant strains 48 hours at 30° C.; read-out: minimum inhibitory concentration (MIC)
Procedure: as §1

[11] = system: Staphylococcus aureus 692E; assay: as above; details: resistant strain Staphylococcus aureus 692E; 2-fold agar dilution; methicillin resistant strains 48 hours at 30° C.; read-out: minimum inhibitory concentration (MIC)
Procedure: as §1

[12] = system: Staphylococcus epidermidis 178; assay: as above; details: resistant strain Staphylococcus epidermidis 178; 2-fold agar dilution; methicillin resistant strains 48 hours at 30° C.; read-out: minimum inhibitory concentration (MIC)
Procedure: as §1

[13] = system: Staphylococcus aureus 293; assay: as above; details: resistant strain Staphylococcus aureus 293; 2-fold agar dilution; methicillin resistant strains 48 hours at 30° C.; read-out: minimum inhibitory concentration (MIC)
Procedure: as §1

[14] = system: Staphylococcus aureus 8236; assay: as above; details: resistant strain Staphylococcus aureus 8236; 2-fold agar dilution; methicillin resistant strains 48 hours at 30° C.; read-out: minimum inhibitory concentration (MIC)
Procedure: as §1

[15] = system: Staphylococcus aureus 241; assay: as above; details: resistant strain Staphylococcus aureus 241; 2-fold agar dilution; methicillin resistant strains 48 hours at 30° C.; read-out: minimum inhibitory concentration (MIC)
Procedure: as §1

[16] = system: Staphylococcus aureus 690E; assay: as above; details: resistant strain Staphylococcus aureus 690E; 2-fold agar dilution; methicillin resistant strains 48 hours at 30° C.; read-out: minimum inhibitory concentration (MIC)
Procedure: as §1

[17] = system: Staphylococcus aureus 88E; assay: as above; details: resistant strain Staphylococcus aureus 88E; 2-fold agar dilution; methicillin resistant strains 48 hours at 30° C.; read-out: minimum inhibitory concentration (MIC)
Procedure: as §1

[18] = system: Staphylococcus aureus 701E; assay: as above; details: resistant strain Staphylococcus aureus 701E; 2-fold agar dilution; methicillin resistant strains 48 hours at 30° C.; read-out: minimum inhibitory concentration (MIC)
Procedure: as §1

[19] = system: Staphylococcus aureus 694E; assay: as above; details: resistant strain Staphylococcus aureus 694E; 2-fold agar dilution; methicillin resistant strains 48 hours at 30° C.; read-out: minimum inhibitory concentration (MIC)
Procedure: as §1

[20] = system: Pseudomonas aeruginosa 1592E; assay: In vitro antibacterial activity (MIC), agar dilution; details: 2-fold agar dilution, Muller-Hinton agar, 18 hours at 37° C., read-out: minimum inhibitory concentration (MIC)
Procedure: as §1

Salmonella typhimurium = assay: as above; details: Salmonella enterica, 2-fold agar dilution, Muller-Hinton agar, 18 hours at 37° C., read-out: minimum inhibitory concentration (MIC)
Procedure: as §1

[21] = system: Klebsiella aerogenes 1522E; assay: as above; details: 2-fold agar dilution, Muller-Hinton agar, 18 hours at 37° C., read-out: minimum inhibitory concentration (MIC)
Procedure: as §1

[22] = system: Pseudomonas aeruginosa 1771; assay: as above; details: 2-fold agar dilution, Muller-Hinton agar, 18 hours at 37° C., read-out: minimum inhibitory concentration (MIC)
Procedure: as §1

Esherichia coli 078 = assay: as above; details: 2-fold agar dilution, Muller-Hinton agar, 18 hours at 37° C., read-out: minimum inhibitory concentration (MIC)
Procedure: as §1

[23] = system: Pseudomonas aeruginosa 1771M; assay: as above; details: Pseudomonas aeruginosa, 1771M, 18 h, read-out: minimum inhibitory concentration (MIC)
Procedure: as §1

[24] = system: Staphylococcus aureus 503; assay: as above; details: 2-fold agar dilution, Muller-Hinton agar, 18 hours at 37° C., read-out: minimum inhibitory concentration (MIC)
Procedure: as §1

[25] = system: Streptococcus faecium MD 8b; assay: as above; details: Enterococcus faecium, MD8B, 2-fold agar dilution, Muller-Hinton agar, 18 hours at 37° C., read-out: minimum inhibitory concentration (MIC)
Procedure: as §1

[26] = system: Streptococcus pyogens 77A; assay: as above; details: 2-fold agar dilution, Muller-Hinton agar, 18 hours at 37° C., read-out: minimum inhibitory concentration (MIC)
Procedure: as §1

[27] = system: Staphylococcus aureus SG511; assay: as above; details: 2-fold agar dilution, Muller-Hinton agar, 18 hours at 37° C., read-out: minimum inhibitory concentration (MIC)
Procedure: as §1

Esherichia coli DC0 = assay: as above; details: 2-fold agar dilution, Muller-Hinton agar, 18 hours at 37° C., read-out: minimum inhibitory concentration (MIC)
Procedure: as §1

Esherichia coli TEM = assay: as above; details: 2-fold agar dilution, Muller-Hinton agar, 18 hours at 37° C., read-out: minimum inhibitory concentration (MIC)
Procedure: as §1

[28] = system: Pseudomonas aeruginosa 9027; assay: as above; details: 2-fold agar dilution, Muller-Hinton agar, 18 hours at 37° C., read-out: minimum inhibitory concentration (MIC)
Procedure: as §1

Klebsiella oxytoca 1082E = assay: as above; details: 2-fold agar dilution, Muller-Hinton agar, 18 hours at 37° C., read-out: minimum inhibitory concentration (MIC)
Procedure: as §1

Esherichia coli 1507E = assay: as above; details: 2-fold agar dilution, Muller-Hinton agar, 18 hours at 37° C., read-out: minimum inhibitory concentration (MIC)
Procedure: as §1

[29] = system: Staphylococcus aureus 285; assay: as above; details: 2-fold agar dilution, Muller-Hinton agar, 18 hours at 37° C., read-out: minimum inhibitory concentration (MIC)
Procedure: as §1

[30] = system: Streptococcus pyogens 308A; assay: as above; details: 2-fold agar dilution, Muller-Hinton agar, 18 hours at 37° C., read-out: minimum inhibitory concentration (MIC)
Procedure: as §1

Enterobacter clocae P99 = assay: as above; details: 2-fold agar dilution, Muller-Hinton agar, 18 hours at 37° C., read-out: minimum inhibitory concentration (MIC)
Procedure: as §1

[31] = system: Enterobacter clocae 1321E; assay: as above; details: 2-fold agar dilution, Muller-Hinton agar, 18 hours at 37° C., read-out: minimum inhibitory concentration (MIC)
Procedure: as §1

Measured: MIC

CON=C1CN(c2nc3c(cc2F)c(=O)c(C(=O)O)cn3C2CC2)CC12CNC2.CS(=O)(=O)O [Example 1, 1-Cyclopropyl-6-fluoro-7-[8-(methoxyimino)-2,6-diazaspiro[3,4]oct-6-yl]-4-oxo-1,4-dihydro[1,8]naphthyridine-3-carboxylic acid methanesulfonate]
0.195 µg/mL: Esherichia coli DC0
1.56 µg/mL: [4] | [12]
0.013 µg/mL: [10] | Salmonella typhimurium | Esherichia coli 078 | [31]
0.007 µg/mL: [26] | [27]
0.025 µg/mL: [6] | [11] | [16] | [24] | Esherichia coli TEM | Esherichia coli 1507E | [29] | Enterobacter clocae P99
0.781 µg/mL: [2] | [5] | [13] | [14] | [15] | [28]
0.098 µg/mL: [30]
0.391 µg/mL: [20] | [22] | [23]
0.004 µg/mL: Klebsiella oxytoca 1082E
0.049 µg/mL: all other assays above

Reference: patent US6552196B2, “Quinolone carboxylic acid derivatives” (Dong Wha Pharmaceutical Industrial Co., Ltd., priority 1997, dated 2003)
